Series [1] deals with T1, C-X-C chemokine receptor type 2 (Homo sapiens) (UniProt P25025).
T1 sequence (whole entry): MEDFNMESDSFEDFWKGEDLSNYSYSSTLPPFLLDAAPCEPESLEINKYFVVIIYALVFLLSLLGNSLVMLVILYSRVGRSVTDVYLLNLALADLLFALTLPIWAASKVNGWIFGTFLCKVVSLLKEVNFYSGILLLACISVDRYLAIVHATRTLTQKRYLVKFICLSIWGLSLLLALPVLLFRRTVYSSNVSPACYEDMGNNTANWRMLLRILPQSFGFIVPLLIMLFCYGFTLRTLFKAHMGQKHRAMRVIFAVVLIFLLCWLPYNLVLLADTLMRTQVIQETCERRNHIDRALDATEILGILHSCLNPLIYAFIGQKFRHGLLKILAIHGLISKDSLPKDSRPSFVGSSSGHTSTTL
Kind of series: Antagonist activity at CXCR2 (unknown origin) assessed as inhibition of chemotaxis at 10 uM.

Series [2] has as its target T2, Atypical chemokine receptor 1 (Homo sapiens) (UniProt Q16570).
T2 sequence (whole entry): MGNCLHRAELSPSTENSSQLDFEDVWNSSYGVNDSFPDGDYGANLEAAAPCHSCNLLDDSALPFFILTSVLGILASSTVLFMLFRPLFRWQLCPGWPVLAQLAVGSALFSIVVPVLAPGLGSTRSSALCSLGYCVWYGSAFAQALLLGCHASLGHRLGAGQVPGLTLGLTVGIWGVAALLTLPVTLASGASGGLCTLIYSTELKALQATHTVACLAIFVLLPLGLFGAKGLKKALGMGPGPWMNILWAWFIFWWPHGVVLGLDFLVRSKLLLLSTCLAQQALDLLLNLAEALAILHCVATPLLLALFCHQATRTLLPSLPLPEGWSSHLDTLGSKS
The series can be described thus: Antagonist activity at Duffy (unknown origin) assessed as inhibition of calcium flux at 10 uM. It is filed as functional. On the technique in general: Calcium assays in cells follow changes in intracellular calcium, usually with a dye or a luminescent sensor.

In series [3] the target is T3, C-C chemokine receptor type 10 (Homo sapiens) (UniProt P46092).
T3 sequence (whole entry): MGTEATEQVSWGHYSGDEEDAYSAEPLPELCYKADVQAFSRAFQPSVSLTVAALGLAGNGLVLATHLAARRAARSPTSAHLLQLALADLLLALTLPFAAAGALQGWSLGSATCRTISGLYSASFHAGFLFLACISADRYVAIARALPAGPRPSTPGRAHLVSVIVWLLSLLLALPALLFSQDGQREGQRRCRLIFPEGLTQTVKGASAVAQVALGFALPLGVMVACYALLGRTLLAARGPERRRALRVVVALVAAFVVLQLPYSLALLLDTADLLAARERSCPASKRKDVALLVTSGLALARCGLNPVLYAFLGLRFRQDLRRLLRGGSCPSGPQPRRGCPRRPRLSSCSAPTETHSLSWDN
The series can be described thus: Antagonist activity at CCR10 (unknown origin) assessed as inhibition of calcium flux at 10 uM. It is filed as functional.

Series [4] has as its target C-C chemokine receptor type 8 (Homo sapiens) (UniProt P51685). Kind of series: Antagonist activity at CCR8 (unknown origin) assessed as inhibition of calcium flux at 10 uM. It is filed as functional.
The target of series [5] is C-C chemokine receptor type 2 (Homo sapiens) (UniProt P41597). Kind of series: Antagonist activity at CCR2 (unknown origin) assessed as inhibition of calcium flux at 10 uM. It is filed as functional.
In series [6] the target is T2, Atypical chemokine receptor 1 (Homo sapiens). The series can be described thus: Binding affinity to Duffy (unknown origin) at 10 uM by radioligand displacement assay.
Series [7] deals with Atypical chemokine receptor 3 (Homo sapiens) (UniProt P25106). The series can be described thus: Binding affinity to CXCR7 (unknown origin) at 10 uM by radioligand displacement assay. A general note: In a radioligand displacement assay an active substance lowers the binding of a labelled ligand.
Series [8] deals with T4, C-X-C chemokine receptor type 1 (Homo sapiens) (UniProt P25024).
T4 sequence (whole entry): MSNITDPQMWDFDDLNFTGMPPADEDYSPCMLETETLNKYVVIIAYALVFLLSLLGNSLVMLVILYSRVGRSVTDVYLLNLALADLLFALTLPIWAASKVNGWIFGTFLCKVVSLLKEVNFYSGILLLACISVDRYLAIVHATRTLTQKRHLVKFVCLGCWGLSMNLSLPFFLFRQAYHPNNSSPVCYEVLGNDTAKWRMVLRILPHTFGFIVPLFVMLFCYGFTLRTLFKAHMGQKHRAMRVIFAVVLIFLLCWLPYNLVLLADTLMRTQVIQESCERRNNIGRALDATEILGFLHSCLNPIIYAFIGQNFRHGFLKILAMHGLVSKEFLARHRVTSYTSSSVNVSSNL
The series can be described thus: Binding affinity to CXCR1 (unknown origin) at 10 uM by radioligand displacement assay.

In series [9] the target is T5, C-C chemokine receptor-like 2 (Homo sapiens) (UniProt O00421).
T5 sequence (whole entry): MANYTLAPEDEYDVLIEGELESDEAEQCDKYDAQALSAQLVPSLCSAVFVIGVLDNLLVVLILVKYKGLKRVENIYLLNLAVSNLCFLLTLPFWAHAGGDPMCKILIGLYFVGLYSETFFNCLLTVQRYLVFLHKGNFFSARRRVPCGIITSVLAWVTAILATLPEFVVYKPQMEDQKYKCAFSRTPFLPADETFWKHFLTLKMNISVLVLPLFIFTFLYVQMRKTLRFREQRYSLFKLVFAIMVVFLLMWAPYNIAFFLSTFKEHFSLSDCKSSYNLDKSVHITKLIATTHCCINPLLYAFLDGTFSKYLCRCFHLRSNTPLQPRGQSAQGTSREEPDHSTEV
Kind of series: Binding affinity to CCR11 (unknown origin) at 10 uM by radioligand displacement assay.

In series [10] the target is T6, C-C chemokine receptor type 3 (Homo sapiens) (UniProt P51677).
T6 sequence (whole entry): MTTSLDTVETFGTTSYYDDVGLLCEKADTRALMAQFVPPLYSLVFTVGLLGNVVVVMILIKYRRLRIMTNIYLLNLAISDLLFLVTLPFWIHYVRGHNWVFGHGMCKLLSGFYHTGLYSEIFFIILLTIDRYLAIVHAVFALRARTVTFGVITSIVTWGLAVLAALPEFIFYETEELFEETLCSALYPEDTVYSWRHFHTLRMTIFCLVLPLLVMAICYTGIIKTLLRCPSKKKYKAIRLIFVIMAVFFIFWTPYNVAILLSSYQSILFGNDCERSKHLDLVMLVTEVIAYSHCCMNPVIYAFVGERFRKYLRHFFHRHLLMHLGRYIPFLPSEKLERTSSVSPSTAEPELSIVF
The series can be described thus: Binding affinity to CCR3 (unknown origin) at 10 uM by radioligand displacement assay.

The next series concerns the target Cytochrome P450 3A4 (Homo sapiens, UniProt P08684). Kind of series: Competitive inhibition of CYP3A4 (unknown origin). It is filed as ADME.
A short description of series [11]: Plasma clearance in Sprague-Dawley rat at 1 mg/kg, iv. It is filed as ADME, organism-based. Set-up: dose 1 mg/kg, route intravenous.
The target in series [12] is C-C chemokine receptor type 1 (Mus musculus, UniProt P51675). Kind of series: Displacement of [125I]-CCL3/MIP-1alpha from CCR1 in mouse WEHI274.1 cells. It is filed as cell-based.

SMILES strings stand for the structures. pIC50: −log10 of the molar value. Activity calls are given as the source filed them. The calls are words filed in the database; no cut-off is given here.

Chain of C-C chemokine receptor type 1 (P51675 whole entry): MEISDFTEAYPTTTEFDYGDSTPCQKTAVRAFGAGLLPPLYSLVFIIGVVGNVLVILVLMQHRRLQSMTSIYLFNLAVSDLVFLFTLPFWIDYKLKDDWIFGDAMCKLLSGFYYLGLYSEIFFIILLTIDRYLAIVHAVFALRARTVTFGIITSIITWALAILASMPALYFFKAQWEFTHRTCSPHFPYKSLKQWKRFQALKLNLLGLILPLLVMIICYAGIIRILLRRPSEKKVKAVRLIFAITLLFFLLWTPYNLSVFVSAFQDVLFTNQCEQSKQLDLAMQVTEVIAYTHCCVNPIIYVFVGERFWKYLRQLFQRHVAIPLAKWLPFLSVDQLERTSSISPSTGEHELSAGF
Chain of C-C chemokine receptor type 2 (Homo sapiens) (P41597 whole entry, looked up): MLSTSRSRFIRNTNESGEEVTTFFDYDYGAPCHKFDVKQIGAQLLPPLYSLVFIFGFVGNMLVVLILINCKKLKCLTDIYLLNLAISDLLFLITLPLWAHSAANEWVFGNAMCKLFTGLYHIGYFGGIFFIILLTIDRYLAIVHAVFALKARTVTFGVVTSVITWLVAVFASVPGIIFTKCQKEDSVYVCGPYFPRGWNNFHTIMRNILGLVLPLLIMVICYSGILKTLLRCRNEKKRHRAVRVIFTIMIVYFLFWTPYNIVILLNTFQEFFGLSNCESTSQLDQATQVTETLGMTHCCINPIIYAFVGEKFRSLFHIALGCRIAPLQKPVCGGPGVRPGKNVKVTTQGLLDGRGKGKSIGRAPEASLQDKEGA
Chain of Atypical chemokine receptor 3 (Homo sapiens) (P25106 whole entry): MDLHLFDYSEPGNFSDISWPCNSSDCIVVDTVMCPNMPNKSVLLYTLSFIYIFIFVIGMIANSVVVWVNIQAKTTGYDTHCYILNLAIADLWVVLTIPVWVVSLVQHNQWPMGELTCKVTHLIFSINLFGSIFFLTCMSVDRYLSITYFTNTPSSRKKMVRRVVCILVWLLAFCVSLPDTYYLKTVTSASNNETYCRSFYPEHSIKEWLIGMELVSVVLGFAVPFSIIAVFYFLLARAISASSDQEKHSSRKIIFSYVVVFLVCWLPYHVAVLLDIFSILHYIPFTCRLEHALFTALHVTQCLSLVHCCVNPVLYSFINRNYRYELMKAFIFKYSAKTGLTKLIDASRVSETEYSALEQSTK
Chain of Cytochrome P450 3A4 (P08684 whole entry): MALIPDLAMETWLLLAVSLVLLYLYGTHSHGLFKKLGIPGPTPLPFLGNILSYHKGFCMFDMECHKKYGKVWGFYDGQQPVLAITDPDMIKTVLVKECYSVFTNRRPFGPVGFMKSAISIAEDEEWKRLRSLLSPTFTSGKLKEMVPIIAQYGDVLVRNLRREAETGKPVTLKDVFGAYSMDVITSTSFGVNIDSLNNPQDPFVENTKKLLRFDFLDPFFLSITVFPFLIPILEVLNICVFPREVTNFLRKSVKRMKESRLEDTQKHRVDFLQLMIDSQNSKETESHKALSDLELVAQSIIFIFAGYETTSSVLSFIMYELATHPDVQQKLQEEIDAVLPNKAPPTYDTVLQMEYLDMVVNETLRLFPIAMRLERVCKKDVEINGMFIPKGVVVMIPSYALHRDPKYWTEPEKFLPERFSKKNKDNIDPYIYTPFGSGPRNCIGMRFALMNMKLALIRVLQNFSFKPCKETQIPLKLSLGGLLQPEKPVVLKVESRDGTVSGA
Chain of C-C chemokine receptor type 8 (Homo sapiens) (P51685 whole entry): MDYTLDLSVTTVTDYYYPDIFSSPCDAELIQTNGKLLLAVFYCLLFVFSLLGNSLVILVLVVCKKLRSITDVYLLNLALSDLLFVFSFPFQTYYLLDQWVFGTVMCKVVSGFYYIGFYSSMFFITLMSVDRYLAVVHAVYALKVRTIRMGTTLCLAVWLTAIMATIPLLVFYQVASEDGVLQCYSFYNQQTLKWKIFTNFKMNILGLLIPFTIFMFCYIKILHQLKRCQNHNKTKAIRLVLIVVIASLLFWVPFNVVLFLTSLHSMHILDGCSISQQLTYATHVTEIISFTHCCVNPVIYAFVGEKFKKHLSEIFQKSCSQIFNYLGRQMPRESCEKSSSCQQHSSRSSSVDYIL

As usually defined, the pIC50 is −log10 of the IC50, conventionally taken in molar units. A low value points to a large IC50. As usually defined, the clearance is the rate of elimination divided by the concentration. Low readings indicate a low capacity for elimination, high ones a high capacity for elimination. For the molecule `COc1cc(N2CCN(C(=O)Cn3nc(C(F)(F)F)c(Cl)c3C)CC2)ccc1Cl`, the inhibition entry in [1], in series [2], in series [3], in series [4] and in [5] was “inactive” throughout. The outcome in [6], in series [7], in [8], in [9] and in [10] was inactive. Moreover, the pIC50 at Cytochrome P450 3A4 is less than 5.00; in series [12], 5.52. Further, the clearance in series [11] came out at 20 mL/min/kg.

(Values after ChEMBL document CHEMBL2321873, “1-(4-Phenylpiperazin-1-yl)-2-(1H-pyrazol-1-yl)ethanones as novel CCR1 antagonists” (Bioorg Med Chem Lett, 2013).)
